The target of the experiment is human-cGAS (h-cGAS) (Homo sapiens, UniProt Q8N884). Nature of the experiment: hcGAS Kinase-Glo Assay. Format: biochemical. Particulars: 40 nM h-cGAS, 100 μM ATP, 100 μM GTP, 25 nM dsDNA, 3 h incubation, read-out: hcGAS potency IC50. Put shortly: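 Kinase-Glo luminescent read-out of human cGAS activity, following the published Lama et al. (2019) protocol with slightly altered conditions. Inhibition reported as IC50.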
(In general: In Kinase-Glo more light means more ATP remaining.)

Chain of human-cGAS (h-cGAS) (Q8N884 whole entry): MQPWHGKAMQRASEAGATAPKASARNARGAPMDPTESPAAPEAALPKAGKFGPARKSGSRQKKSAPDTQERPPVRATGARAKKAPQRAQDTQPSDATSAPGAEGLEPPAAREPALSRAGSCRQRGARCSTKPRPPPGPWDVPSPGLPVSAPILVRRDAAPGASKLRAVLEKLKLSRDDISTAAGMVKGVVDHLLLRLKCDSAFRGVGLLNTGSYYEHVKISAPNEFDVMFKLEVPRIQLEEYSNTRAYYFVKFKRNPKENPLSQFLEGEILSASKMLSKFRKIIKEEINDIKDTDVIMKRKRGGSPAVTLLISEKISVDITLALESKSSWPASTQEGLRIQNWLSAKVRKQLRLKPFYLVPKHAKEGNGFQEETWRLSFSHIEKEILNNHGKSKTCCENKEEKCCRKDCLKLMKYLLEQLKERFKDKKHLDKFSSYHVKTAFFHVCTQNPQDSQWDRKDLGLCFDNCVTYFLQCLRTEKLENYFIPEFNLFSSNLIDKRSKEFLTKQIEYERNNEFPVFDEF

For orientation: IC50 means the midpoint of a concentration-inhibition curve. Take `Cc1c(-c2cc(C(=O)Nc3nnc(-c4ccccc4Cl)s3)on2)cnn1C` [Compound 53, N-(5-(2-chlorophenyl)-1,3,4-thiadiazol-2-yl)-3-(1,5-dimethyl-1H-pyrazol-4-yl)isoxazole-5-carboxamide]: the IC50 lay within 100 to 500 nM.

With `CSc1nnc(NC(=O)c2onc3c2CCCC3=O)s1` [Compound 195, N-(5-(methylthio)-1,3,4-thiadiazol-2-yl)-7-oxo-4,5,6,7-tetrahydrobenzo[c]isoxazole-3-carboxamide], the IC50 is no less than 1000 nM. In the case of `O=C(Nc1nnc(-c2c[nH]cn2)s1)c1onc2ccccc12` [Compound 129, N-[5-(1H-imidazol-4-yl)-1,3,4-thiadiazol-2-yl]-2,1-benzoxazole-3-carboxamide] it was no less than 1000 nM; in that of `CSc1nnc(NC(=O)c2cc(-c3cccc(C#N)c3)no2)s1` [Compound 214, 3-(3-cyanophenyl)-N-[5-(methylsulfanyl)-1,3,4-thiadiazol-2-yl]-1,2-oxazole-5-carboxamide], no less than 1000 nM; in that of `O=C(Nc1nnc(-c2ccccn2)s1)c1onc2c1ccc1cccnc12` [Compound 10, N-(5-(pyridin-2-yl)-1,3,4-thiadiazol-2-yl)isoxazolo[4,3-h]quinoline-3-carboxamide], 100 to 500 nM. Under `CSc1nnc(NC(=O)c2nnn(-c3ccccn3)n2)s1` [Compound 136, N-(5-(methylthio)-1,3,4-thiadiazol-2-yl)-2-(pyridin-2-yl)-2H-tetrazole-5-carboxamide] stands 500 to 1000 nM. In the case of `CSc1nnc(NC(=O)c2cc(-c3ccccc3C)no2)s1` [Compound 218, 3-(2-methylphenyl)-N-[5-(methylsulfanyl)-1,3,4-thiadiazol-2-yl]-1,2-oxazole-5-carboxamide], the IC50 fell in the range of 500 to 1000 nM. For the compound `O=C(Nc1nnc(-c2cccc(O)c2)s1)c1onc2ccccc12` [Compound 30, N-(5-(3-hydroxyphenyl)-1,3,4-thiadiazol-2-yl)benzo[c]isoxazole-3-carboxamide], the IC50 was no less than 1000 nM.

Turning to `CSc1nnc(NC(=O)c2nnn(Cc3ccccc3)n2)s1` [Compound 134, 2-benzyl-N-(5-(methylthio)-1,3,4-thiadiazol-2-yl)-2H-tetrazole-5-carboxamide], the IC50 was no less than 1000 nM. In the case of `CSc1nnc(NC(=O)c2nnn(Cc3ccccn3)n2)s1` [Compound 133, N-[5-(methylthio)-1,3,4-thiadiazol-2-yl]-2-(pyridin-2-ylmethyl)-1,2,3,4-tetrazole-5-carboxamide], the IC50 is no less than 1000 nM. In the case of `CSc1nnc(NC(=O)c2onc3cc(C(=O)O)ccc23)s1` [Compound 204] it was 100 to 500 nM; in that of `O=C(Nc1nnc(-c2ccccc2Cl)s1)c1cc(Nc2ccccc2)cc(=O)o1` [Compound 206, N-[5-(2-chlorophenyl)-1,3,4-thiadiazol-2-yl]-6-oxo-4-(phenylamino) pyran-2-carboxamide], less than 100 nM; in that of `O=C(Nc1nnc(C(F)(F)F)s1)c1onc2c1ccc1cccnc12` [Compound 12, N-(5-(trifluoromethyl)-1,3,4-thiadiazol-2-yl)isoxazolo[4,3-h]quinoline-3-carboxamide], 100 to 500 nM. Take `CSc1nnc(NC(=O)c2nnc(N3CCC(C(=O)O)C3)o2)s1` (stereo not shown) [Compound 112, 1-(5-{[5-(methylsulfanyl)-1,3,4-thiadiazol-2-yl]carbamoyl}-1,3,4-oxadiazol-2-yl)pyrrolidine-3-carboxylic acid]: the IC50 fell in the range of 100 to 500 nM. Under `Cc1ccccc1-c1nnc(NC(=O)c2onc3ccccc23)s1` [Compound 27, N-(5-(o-tolyl)-1,3,4-thiadiazol-2-yl)benzo[c]isoxazole-3-carboxamide] stands 500 to 1000 nM; under `CSc1nnc(NC(=O)c2onc3ccc(Cc4ccccc4)cc23)s1` [Compound 159, 5-Benzyl-N-(5-(methylthio)-1,3,4-thiadiazol-2-yl)benzo[c]isoxazole-3-carboxamide], 500 to 1000 nM. As for `CSc1nnc(NC(=O)c2cc(-c3cccc(C)c3)cc(=O)o2)s1` [Compound 249, N-(5-methylsulfanyl-1,3,4-thiadiazol-2-yl)-4-(m-tolyl)-6-oxo-pyran-2-carboxamide], the IC50 lay within 100 to 500 nM. Under `CSc1nnc(NC(=O)c2nc(Cc3ccccc3)no2)s1` [Compound 261, 3-benzyl-N-(5-methylsulfanyl-1,3,4-thiadiazol-2-yl)-1,2,4-oxadiazole-5-carboxamide] stands 500 to 1000 nM; under `CSc1nnc(NC(=O)c2noc(N3CCC(C)(C)CC3)n2)s1` [Compound 102, 5-(4,4-dimethylpiperidin-1-yl)-N-(5-(methylthio)-1,3,4-thiadiazol-2-yl)-1,2,4-oxadiazole-3-carboxamide], no less than 1000 nM. With `CSc1nnc(NC(=O)c2cc(C3CCCCC3)no2)s1` [Compound 84, 3-cyclohexyl-N-(5-(methylthio)-1,3,4-thiadiazol-2-yl)isoxazole-5-carboxamide], the IC50 was 100 to 500 nM.

Take `CSc1nnc(NC(=O)c2cc(Nc3ccccc3)cc(=O)o2)s1` [Compound 268, N-(5-(methylthio)-1,3,4-thiadiazol-2-yl)-2-oxo-4-(phenylamino)-2H-pyran-6-carboxamide]: the IC50 lay in the range of 100 to 500 nM. In the case of `O=C(O)Cc1nnc(NC(=O)c2onc3ccccc23)s1` [Compound 132, [5-(2,1-benzoxazole-3-amido)-1,3,4-thiadiazol-2-yl]acetic acid], the IC50 was no less than 1000 nM. For `O=C(Nc1nnc(-c2ccccc2Cl)s1)c1cc(-c2ncc3ccccc3n2)no1` [Compound 155, N-(5-(2-Chlorophenyl)-1,3,4-thiadiazol-2-yl)-3-(quinazolin-2-yl)isoxazole-5-carboxamide], the IC50 is 100 to 500 nM. In the case of `CSc1nnc(NC(=O)c2onc3c2CCc2cnc(C)nc2-3)s1` [Compound 174, 8-Methyl-N-(5-(methylthio)-1,3,4-thiadiazol-2-yl)-4,5-dihydroisoxazolo[4,3-h]quinazoline-3-carboxamide] it was no less than 1000 nM.

For the compound `COCCNC(=O)c1cc(C(=O)Nc2nnc(-c3ccccc3Cl)s2)on1` [Compound 88, N5-(5-(2-chlorophenyl)-1,3,4-thiadiazol-2-yl)-N3-(2-methoxyethyl)isoxazole-3,5-dicarboxamide], the IC50 is 500 to 1000 nM. Consider `O=C(Nc1nnc(-c2ccccc2Cl)s1)c1ccnc(=O)[nH]1` [Compound 62, N-(5-(2-chlorophenyl)-1,3,4-thiadiazol-2-yl)-2-oxo-2,3-dihydropyrimidine-4-carboxamide], for which the IC50 was no less than 1000 nM.

For `COc1ccc(Cc2ccc3noc(C(=O)Nc4nnc(SC)s4)c3c2)cc1` [Compound 160, 5-(4-Methoxybenzyl)-N-(5-(methylthio)-1,3,4-thiadiazol-2-yl)benzo[c]isoxazole-3-carboxamide], the IC50 lay within 500 to 1000 nM. In the case of `CSc1nnc(NC(=O)c2nnc(N3CCC[C@@H]3c3ccccc3)o2)s1` [Compound 125, (R)-N-(5-(methylthio)-1,3,4-thiadiazol-2-yl)-5-(2-phenylpyrrolidin-1-yl)-1,3,4-oxadiazole-2-carboxamide] it was 100 to 500 nM. Under `CSc1nnc(NC(=O)c2onc3ccc(Nc4ccccc4)cc23)s1` [Compound 162, N-(5-(methylthio)-1,3,4-thiadiazol-2-yl)-5-(phenylamino)benzo[c]isoxazole-3-carboxamide] stands 500 to 1000 nM; under `Cn1cc(-c2cc(C(=O)Nc3nnc(-c4ccccc4Cl)s3)on2)cn1` [Compound 52, N-(5-(2-chlorophenyl)-1,3,4-thiadiazol-2-yl)-3-(1-methyl-1H-pyrazol-4-yl)isoxazole-5-carboxamide], 100 to 500 nM. Under `CSc1nnc(NC(=O)c2nnc(N3CCCC(C)(C)C3)o2)s1` [Compound 119, 5-(3,3-dimethylpiperidin-1-yl)-N-(5-(methylthio)-1,3,4-thiadiazol-2-yl)-1,3,4-oxadiazole-2-carboxamide] stands 500 to 1000 nM; under `CSc1nnc(NC(=O)c2nnn(Cc3cccnc3)n2)s1` [Compound 135, N-(5-(methylthio)-1,3,4-thiadiazol-2-yl)-2-(pyridin-3-ylmethyl)-2H-tetrazole-5-carboxamide], no less than 1000 nM. On to `O=C(Nc1nnc(-c2ccccc2Cl)s1)c1cc(CCO)no1` [Compound 179, N-(5-(2-chlorophenyl)-1,3,4-thiadiazol-2-yl)-3-(2-hydroxyethyl)isoxazole-5-carboxamide], for which the IC50 is 100 to 500 nM. Under `CSc1nnc(NC(=O)c2onc3ccc(F)cc23)s1` [Compound 223, 5-fluoro-N-[5-(methylsulfanyl)-1,3,4-thiadiazol-2-yl]-2,1-benzoxazole-3-carboxamide] stands 500 to 1000 nM; under `O=C(Nc1nnc(-c2ccccc2Cl)s1)c1c[nH]c(=O)o1` [Compound 61, N-(5-(2-chlorophenyl)-1,3,4-thiadiazol-2-yl)-2-oxo-2,3-dihydrooxazole-5-carboxamide], 100 to 500 nM. Under `CSc1nnc(NC(=O)c2onc3ccccc23)s1` [Compound 79, N-(5-(methylthio)-1,3,4-thiadiazol-2-yl)benzo[c]isoxazole-3-carboxamide] stands 500 to 1000 nM.

Consider `COCCOc1cc(C(=O)Nc2nnc(-c3ccccc3Cl)s2)on1` [Compound 175, N-(5-(2-chlorophenyl)-1,3,4-thiadiazol-2-yl)-3-(2-methoxyethoxy)isoxazole-5-carboxamide], for which the IC50 is 100 to 500 nM. In the case of `CSc1nnc(NC(=O)c2nnc(N3CCCC[C@H]3c3ccccc3)o2)s1` (single isomer, unassigned) [Compound 122*] it was 100 to 500 nM; in that of `COC(=O)c1cc(C(=O)Nc2nnc(SC)s2)on1` [Compound 15, methyl 5-((5-(methylthio)-1,3,4-thiadiazol-2-yl)carbamoyl)isoxazole-3-carboxylate], 500 to 1000 nM; in that of `CSc1nnc(NC(=O)c2onc3c(Cl)cccc23)s1` [Compound 228, 7-chloro-N-[5-(methylsulfanyl)-1,3,4-thiadiazol-2-yl]-2,1-benzoxazole-3-carboxamide], 500 to 1000 nM.

For the origin of these results see patent publication US20250002487A1, “HETEROCYCLIC COMPOUNDS AND USES THEREOF” (Ventus Therapeutics U.S., Inc., priority 2021, published 2025).
